Experimental data taken from patent US20160106722A1, “HUMAN THERAPEUTIC AGENTS” (Life Plus, LLC, priority 2014, published 2016).

Columns and labels:
Assay in all cases: Cancer spheroid cell death test (PrestoBlue)
Format in all cases: cell-based
[1] = test system: human prostate cancer cells (22rv1); details: compound alone
Description: (§1) Custom-made micromolds with 100 μm diameter wells were loaded with the cells (U.S. Pat. No. 8,735,154, incorporated by reference herein). The media were changed every day by partial replacement. Cell aggregates were allowed to form in the micromolds for 72 hours and then were transferred to a 100 mm non-treated tissue culture dishes for 3 additional days. The spheroids were passed through 70 μm and 100 μm cell strainers (#3431751 and #43152, Corning, Tewksbury, Mass.) and maintained in HEPES Balanced Salt Solution comprised of: 20 mM HEPES, 114 mM NaCl, 4.7 mM KCl, 1.2 mM KH2PO4, 1.16 mM MgSO4, 2.5 mM CaCl2, 25.5 mM NaHCO3 and 0.2% bovine serum albumin (fatty acid free), pH 7.2.
(§2) The cells were treated and tested as set forth in Example 1.

[2] = test system: human ovarian cancer cells (A1847); details: for anticancer effects (cell number versus increasing concentrations): compound alone
Description: as §1, §2

[3] = test system: human lung cancer cells (H358); details: compound alone
Description: as §1
The lymphomas treatment methods used were identical to those described in Example 2 relative to the pediatric leukemia cells, whereas the lung cancer treatment method was the same as described in Example 1.

| Structure (SMILES) | anticancer effects (cell number versus increasing concentrations) [1] | anticancer effects (cell number versus increasing concentrations) [2] | anticancer effects (cell number versus increasing concentrations) [3] | cell death, doxorubicin alone ([2]; low doses of doxorubicin alone (up to 0.158 μM)) |
| --- | --- | --- | --- | --- |
| COc1ccc(CO)cc1O [isovanillyl alcohol] | demonstrated anticancer effects | demonstrated anticancer effects | demonstrated anticancer effects | – |
| Cc1nccc2c1[nH]c1cc(O)ccc12.Cl [harmole hydrochloride] | demonstrated anticancer effects | demonstrated anticancer effects | demonstrated anticancer effects | – |
| COc1ccc(C(=O)O)cc1O [isovanillic acid] | demonstrated anticancer effects | demonstrated anticancer effects | demonstrated anticancer effects | – |
| COc1cccc(C=O)c1O [O-vanillin] | demonstrated anticancer effects | demonstrated anticancer effects | demonstrated anticancer effects | – |
| COc1cccc2c1C(=O)c1c(O)c3c(c(O)c1C2=O)C[C@@](O)(C(=O)CO)C[C@@H]3O[C@H]1C[C@H](N)[C@H](O)[C@H](C)O1 [doxorubicin, reference compound] | – | – | – | ineffective |
| COc1ccc2c3c([nH]c2c1)C(C)=NCC3 [harmaline] | demonstrated anticancer effects | demonstrated anticancer effects | demonstrated anticancer effects | – |
| CC1=NCCc2c1[nH]c1cc(O)ccc21.Cl [harmalol hydrochloride] | demonstrated anticancer effects | demonstrated anticancer effects | demonstrated anticancer effects | – |
| COc1cc(C=O)ccc1O [vanillin] | demonstrated anticancer effects | demonstrated anticancer effects | demonstrated anticancer effects | – |
| COc1ccc2c3c([nH]c2c1)[C@@H](C)NCC3 [tetrahydro-harmine] | demonstrated anticancer effects | demonstrated anticancer effects | demonstrated anticancer effects | – |
